What all share (test): relative viability (nuclei count vs DMSO), 5 days (fraction); higher = more cells survive
Compound in test [1]: CC(=O)Nc1cccc(-n2c(=O)n(C3CC3)c(=O)c3c(Nc4ccc(I)cc4F)n(C)c(=O)c(C)c32)c1 [Trametinib] + CC(=O)c1c(C)c2cnc(Nc3ccc(N4CCNCC4)cn3)nc2n(C2CCCC2)c1=O [Palbociclib] (partner 0.5 µM)
The procedure, abridged:
(§1)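 Values are medians from duplicate plates. Each reflects relative viability, defined as the nuclei count of treated wells over that of vehicle wells. Lung cancer cell lines in 1536-well plates were pin-tool dosed one day after seeding with one drug alone or with a fixed anchor-drug dose plus five library-drug doses (not always all listed) in √10 steps, then fixed, stained and imaged at 4× after 5 days.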

Compound in test [2]: CC(=O)Nc1cccc(-n2c(=O)n(C3CC3)c(=O)c3c(Nc4ccc(I)cc4F)n(C)c(=O)c(C)c32)c1 [Trametinib] + NC(=O)Nc1cc(-c2cccc(F)c2)sc1C(=O)N[C@H]1CCCNC1 [AZD7762] (partner 0.2 µM)
The procedure, abridged: as §1

Compound in test [3]: CN1C=C(C2=CC=CC=C21)/C=C\3/C4=C(C=CC=N4)NC3=O + Cc1cc(Nc2cc(N3CCN(C)CC3)nc(Sc3ccc(NC(=O)C4CC4)cc3)n2)n[nH]1 [Tozasertib] (partner 0.1 µM)
Summed up: as §1

Compound in test [4]: CC(=O)Nc1cccc(-n2c(=O)n(C3CC3)c(=O)c3c(Nc4ccc(I)cc4F)n(C)c(=O)c(C)c32)c1 [Trametinib] + O=C(CCCCCCC(=O)Nc1ccccc1)NO [Vorinostat] (partner 1 µM)
The procedure, abridged: as §1

On to NCI-H3122, for which the relative viability in test [1] (first compound 0.0025 µM) came to 0.189; in test [1] (first compound 0.007906 µM), 0.158; in test [1] (first compound 0.025 µM) it was 0.125; in test [1] (first compound 0.07906 µM), 0.112; in test [1] (first compound 0.25 µM) it was 0.101; in test [2] (first compound 0.0025 µM), 0.947. Further, the relative viability in test [2] (first compound 0.007906 µM) is 0.642; in test [2] (first compound 0.025 µM), 0.292; in test [2] (first compound 0.07906 µM) it was 0.361; in test [2] (first compound 0.25 µM), 0.308; in test [3] (first compound 0.02 µM), 0.37; in test [3] (first compound 0.06325 µM), 0.343. The relative viability in test [3] (first compound 0.6325 µM) is 0.398; in test [3] (first compound 2 µM), 0.49; in test [4] (first compound 0.0025 µM), 0.978; in test [4] (first compound 0.007906 µM), 0.678; in test [4] (first compound 0.025 µM), 0.204; in test [4] (first compound 0.07906 µM), 0.361. Besides, in test [4] (first compound 0.25 µM), the relative viability worked out at 0.518.
PC-3 [JPC-3]: the relative viability in test [1] (first compound 0.0025 µM) is 0.556; in test [1] (first compound 0.007906 µM), 0.581; in test [1] (first compound 0.025 µM), 0.483; in test [1] (first compound 0.25 µM), 0.575; in test [2] (first compound 0.0025 µM), 0.714; in test [2] (first compound 0.007906 µM) it was 0.501. The relative viability in test [2] (first compound 0.025 µM) worked out at 0.506; in test [2] (first compound 0.25 µM) it was 0.568; in test [3] (first compound 0.02 µM) it was 0.863; in test [3] (first compound 0.06325 µM), 0.897; in test [3] (first compound 0.2 µM), 0.92; in test [3] (first compound 0.6325 µM), 0.746. In addition, the relative viability is 0.913 in test [3] (first compound 2 µM); 0.82 in test [4] (first compound 0.0025 µM); 0.722 in test [4] (first compound 0.007906 µM); 0.557 in test [4] (first compound 0.025 µM); 0.53 in test [4] (first compound 0.25 µM).
Turning to PC-14, the relative viability in test [1] (first compound 0.0025 µM) turned out to be 0.46; in test [1] (first compound 0.007906 µM), 0.306; in test [1] (first compound 0.025 µM) it was 0.295; in test [1] (first compound 0.07906 µM) it was 0.214; in test [1] (first compound 0.25 µM) it was 0.102; in test [2] (first compound 0.0025 µM), 0.354. Also, the relative viability amounted to 0.274 in test [2] (first compound 0.007906 µM); 0.224 in test [2] (first compound 0.025 µM); 0.193 in test [2] (first compound 0.07906 µM); 0.203 in test [2] (first compound 0.25 µM); 0.564 in test [3] (first compound 0.02 µM); 0.525 in test [3] (first compound 0.06325 µM). Besides, the relative viability came out at 0.585 in test [3] (first compound 0.2 µM); 0.553 in test [3] (first compound 0.6325 µM); 0.541 in test [3] (first compound 2 µM); 0.781 in test [4] (first compound 0.0025 µM); 0.599 in test [4] (first compound 0.007906 µM); 0.535 in test [4] (first compound 0.025 µM). The relative viability in test [4] (first compound 0.07906 µM) amounted to 0.438; in test [4] (first compound 0.25 µM), 0.0917.
Turning to RERF-LC-KJ, the relative viability in test [1] (first compound 0.0025 µM) turned out to be 1.03; in test [1] (first compound 0.007906 µM) it was 0.857; in test [1] (first compound 0.025 µM), 0.914; in test [1] (first compound 0.07906 µM), 0.848; in test [1] (first compound 0.25 µM), 0.66; in test [2] (first compound 0.0025 µM), 0.853. Besides, the relative viability came out at 0.909 in test [2] (first compound 0.007906 µM); 0.674 in test [2] (first compound 0.025 µM); 0.807 in test [2] (first compound 0.07906 µM); 0.814 in test [2] (first compound 0.25 µM); 0.428 in test [3] (first compound 0.02 µM); 0.407 in test [3] (first compound 0.06325 µM). In addition, the relative viability in test [3] (first compound 0.2 µM) was 0.621; in test [3] (first compound 0.6325 µM), 0.558; in test [3] (first compound 2 µM), 0.512; in test [4] (first compound 0.0025 µM), 0.549; in test [4] (first compound 0.007906 µM), 0.621; in test [4] (first compound 0.025 µM), 0.6. Also, the relative viability was determined as 0.569 in test [4] (first compound 0.07906 µM) and 0.472 in test [4] (first compound 0.25 µM).
Consider SW 900, for which the relative viability came out at 0.56 in test [1] (first compound 0.0025 µM); 0.49 in test [1] (first compound 0.007906 µM); 0.483 in test [1] (first compound 0.025 µM); 0.457 in test [1] (first compound 0.07906 µM); 0.383 in test [1] (first compound 0.25 µM); 0.666 in test [2] (first compound 0.0025 µM). The relative viability in test [2] (first compound 0.007906 µM) amounted to 0.518; in test [2] (first compound 0.025 µM), 0.575; in test [2] (first compound 0.07906 µM), 0.47; in test [2] (first compound 0.25 µM), 0.268; in test [3] (first compound 0.02 µM), 0.468; in test [3] (first compound 0.06325 µM) it was 0.531. The relative viability in test [3] (first compound 0.6325 µM) was determined as 0.452; in test [3] (first compound 2 µM) it was 0.389; in test [4] (first compound 0.0025 µM) it was 0.44; in test [4] (first compound 0.007906 µM) it was 0.545; in test [4] (first compound 0.025 µM) it was 0.439; in test [4] (first compound 0.07906 µM), 0.456. The relative viability in test [4] (first compound 0.25 µM) came to 0.138.

Source of the values: the supplement of paper PMC10307832.
